Measured values: the supplement of paper PMC10307832

What was measured:
Assay in all cases: relative viability (nuclei count vs DMSO), 5 days (fraction); higher = more cells survive
[1] = compound: Cc1ccc(NC(=O)c2ccc(CN3CCN(C)CC3)cc2)cc1Nc1nc(-c2cccnc2)cs1 [Masitinib] + Cc1cc(Nc2cc(N3CCN(C)CC3)nc(Sc3ccc(NC(=O)C4CC4)cc3)n2)n[nH]1 [Tozasertib] (partner 0.1 µM)
How it was run: (§1)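 Values are medians from duplicate plates. Each reflects relative viability, defined as the nuclei count of treated wells over that of vehicle wells. Lung cancer cell lines in 1536-well plates were pin-tool dosed one day after seeding with one drug alone or with a fixed anchor-drug dose plus five library-drug doses (not always all listed) in √10 steps, then fixed, stained and imaged at 4× after 5 days.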

[2] = compound: CC1=CC(=CC=C1)NC2=NC(=CS2)C3=CC=NC=C3 + Nc1ncn([C@H]2C[C@H](O)[C@@H](CO)O2)c(=O)n1 [Decitabine] (partner 2 µM)
How it was run: as §1

[3] = compound: Cc1ccc(NC(=O)c2ccc(CN3CCN(C)CC3)cc2)cc1Nc1nc(-c2cccnc2)cs1 [Masitinib] + O=C(CCCCCCC(=O)Nc1ccccc1)NO [Vorinostat] (partner 1 µM)
How it was run: as §1

[4] = compound: CC1=CC(=CC=C1)NC2=NC(=CS2)C3=CC=NC=C3 + C[C@@H](Oc1cc(-c2cnn(C3CCNCC3)c2)cnc1N)c1c(Cl)ccc(F)c1Cl [Crizotinib] (partner 1 µM)
How it was run: as §1

| Cell Line | relative viability ([1]; first compound 0.01 µM) | relative viability ([1]; first compound 0.03162 µM) | relative viability ([1]; first compound 0.1 µM) | relative viability ([1]; first compound 0.3162 µM) | relative viability ([1]; first compound 1 µM) | relative viability ([2]; first compound 0.08 µM) | relative viability ([2]; first compound 0.253 µM) | relative viability ([2]; first compound 0.8 µM) | relative viability ([2]; first compound 2.53 µM) | relative viability ([2]; first compound 8 µM) | relative viability ([3]; first compound 0.01 µM) | relative viability ([3]; first compound 0.03162 µM) | relative viability ([3]; first compound 0.1 µM) | relative viability ([3]; first compound 0.3162 µM) | relative viability ([3]; first compound 1 µM) | relative viability ([4]; first compound 0.08 µM) | relative viability ([4]; first compound 0.253 µM) | relative viability ([4]; first compound 0.8 µM) | relative viability ([4]; first compound 2.53 µM) | relative viability ([4]; first compound 8 µM) |
| --- | --- | --- | --- | --- | --- | --- | --- | --- | --- | --- | --- | --- | --- | --- | --- | --- | --- | --- | --- | --- |
| RERF-LC-KJ | 0.558 | 0.41 | 0.492 | 0.465 | 0.336 | 0.675 | 0.64 | 0.62 | 0.522 | 0.387 | 0.587 | 0.783 | 0.752 | 0.541 | 0.646 | 0.741 | 0.705 | 0.556 | 0.59 | 0.512 |
| BEN | 0.481 | 0.506 | 0.561 | 0.483 | 0.481 | 0.636 | 0.687 | 0.772 | 0.588 | 0.781 | 0.616 | 0.533 | 0.557 | 0.528 | 0.557 | 1.11 | 0.948 | 0.879 | 0.779 | 0.76 |
| LC-2-ad | 0.426 | 0.443 | 0.435 | 0.391 | 0.384 | 0.754 | 0.776 | 0.793 | 0.799 | 0.69 | 0.546 | 0.666 | 0.584 | 0.694 | 0.718 | 0.45 | 0.419 | 0.394 | 0.397 | 0.396 |
| SW 1573 | 0.133 | 0.144 | 0.213 | 0.15 | 0.135 | 0.48 | 0.409 | 0.441 | 0.454 | 0.485 | 0.645 | 0.763 | 0.929 | 0.968 | 0.973 | 0.671 | 0.77 | 0.864 | 1.01 | 0.783 |
| ChaGo-K-1 | 0.205 | 0.202 | 0.21 | 0.192 | 0.21 | 0.528 | 0.528 | 0.519 | 0.522 | 0.499 | 0.901 | 0.711 | 0.853 | 0.775 | 0.732 | 1.08 | 1.07 | 1.14 | 1.07 | 1.15 |
| COR-L 105 | 0.377 | 0.353 | 0.361 | 0.333 | 0.317 | 0.648 | 0.691 | 0.624 | 0.572 | 0.533 | 0.741 | 1.09 | 0.971 | 0.78 | 0.841 | 0.626 | 0.604 | 0.634 | 0.701 | 0.468 |
| NCI-H1993 | 0.519 | 0.554 | 0.547 | 0.593 | 0.498 | 0.565 | 0.561 | 0.483 | 0.485 | 0.502 | 0.727 | 0.527 | 0.943 | 0.723 | 0.762 | 0.847 | 0.706 | 0.853 | 0.91 | 0.946 |
| NCI-H2009 | 0.762 | 0.71 | 0.744 | 0.817 | 0.658 | 0.342 | 0.425 | 0.385 | 0.411 | 0.376 | 0.664 | 0.772 | 0.69 | 0.654 | 0.602 | 0.917 | 0.97 | 1.01 | 0.939 | 0.89 |
| SK-LU-1 | 0.349 | 0.299 | 0.319 | 0.35 | 0.292 | 0.624 | 0.625 | 0.563 | 0.617 | 0.726 | 0.779 | 0.844 | 0.744 | 0.926 | 0.774 | 0.751 | 1 | 0.636 | 0.912 | 0.938 |
| NCI-H2347 | 0.379 | 0.457 | 0.536 | 0.563 | 0.394 | 0.622 | 0.596 | 0.53 | 0.602 | 0.591 | 0.601 | 0.543 | 0.647 | 0.651 | 0.624 | 0.544 | 0.688 | 0.468 | 0.789 | 0.777 |
| HCC-366 |  | 0.0721 |  | 0.0725 | 0.0736 | 0.329 | 0.357 | 0.308 | 0.309 | 0.263 |  | 0.335 | 0.344 | 0.249 | 0.334 | 0.346 | 0.387 | 0.351 | 0.451 | 0.638 |
| EMC-BAC-2 | 0.273 | 0.271 | 0.287 | 0.264 | 0.261 | 0.916 |  | 0.91 | 0.918 | 0.884 | 0.38 |  | 0.441 | 0.445 | 0.335 | 0.642 | 0.7 | 0.717 | 0.643 | 0.729 |
| NCI-H3122 |  | 0.502 |  | 0.387 | 0.417 | 0.366 | 0.443 | 0.449 | 0.467 | 0.522 | 0.844 | 0.982 | 1.15 | 1.14 | 1.05 | 0.266 | 0.31 | 0.334 | 0.332 | 0.47 |
| SK-MES-1 | 1.02 | 0.907 | 0.925 | 0.677 | 0.81 | 0.37 | 0.361 | 0.367 | 0.373 | 0.378 | 0.876 | 1.15 | 1.03 | 0.984 | 1.07 | 0.79 | 0.781 | 0.815 | 0.842 | 0.853 |
| NCI-H2170 | 0.778 | 0.685 | 0.746 | 0.739 | 0.671 | 0.426 | 0.399 | 0.437 | 0.43 | 0.361 | 0.781 | 0.708 | 0.908 | 0.869 | 0.823 | 1.11 | 1.13 | 1.09 | 1.09 | 1.05 |
| EPLC-272H | 0.342 | 0.352 | 0.361 | 0.357 | 0.244 | 0.339 | 0.37 | 0.348 |  | 0.352 | 0.4 |  | 0.392 | 0.464 | 0.425 | 0.854 |  | 0.877 |  | 0.885 |
| NCI-H1975 | 0.764 | 0.609 | 0.609 |  | 0.263 | 0.326 | 0.336 | 0.381 | 0.356 | 0.245 | 0.693 | 0.736 | 0.724 | 0.716 | 0.711 | 0.819 | 0.737 | 0.862 | 0.758 | 0.722 |
